# Test results taken from US12275729B2 (Merck Sharp & Dohme LLC, priority 2017, dated 2025).
# Structures can show the parent of a compound that is named as a salt.
# What was measured:
# IDO1 [1] = target: T1, IDO1 (Homo sapiens, UniProt P14902); test: IDO1 Human Whole Blood Assay; type: cell-based; set-up: Human whole blood was drawn in sodium heparin coated tubes from healthy internal donors; from tissue; host or cells: human whole blood from healthy donors, stimulated with LPS and IFNγ; settings: LPS and IFNγ stimulated
# T1 sequence (P14902 whole entry): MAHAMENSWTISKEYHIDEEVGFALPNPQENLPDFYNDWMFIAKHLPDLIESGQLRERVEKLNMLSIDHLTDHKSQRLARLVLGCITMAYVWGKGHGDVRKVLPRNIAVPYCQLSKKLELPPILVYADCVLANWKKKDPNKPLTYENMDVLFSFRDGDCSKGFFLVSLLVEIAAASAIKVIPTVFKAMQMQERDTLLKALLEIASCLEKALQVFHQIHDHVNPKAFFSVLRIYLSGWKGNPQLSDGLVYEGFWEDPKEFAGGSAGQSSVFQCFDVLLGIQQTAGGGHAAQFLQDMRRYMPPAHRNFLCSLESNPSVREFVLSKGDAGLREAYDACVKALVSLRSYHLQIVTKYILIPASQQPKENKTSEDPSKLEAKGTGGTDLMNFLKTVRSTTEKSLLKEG
# Protocol: IDO1 Human Whole Blood Assay
# Compounds to be tested were serially diluted in ten 3-fold steps in DMSO starting from 10 mM. […] LPS and IFNγ was prepared in RPMI to a 10× of final conc. (1000 ng/mL), final concentration is 100 ng/mL.
# Human whole blood was drawn in sodium heparin coated tubes from healthy internal donors. 240 μL of blood was transferred to each of the wells of a v-bottom 96 well plate. 30 μL of compound was transferred from intermediate dilution plate, and incubated for 15 min. 30 μL from stimulants was then transferred to blood and mixed thoroughly.
# On day 2 isotope labeled standard of kynurenine and tryptophan was made in water at 1Ox concentration and 30 μL was added to the blood at […] final concentration. The assay plates were centrifuged at 300×G for 10 min with no brake to separate plasma from red blood cells. 60 μL of plasma samples was removed without disturbing red blood cells. Plasma was diluted with RPMI in 1:1 ratio and proteins were precipitated out with two volume of Acetonitrile. The plates were centrifuged at 4000×G for 60 min. 20 μL of supernatant was carefully transferred to a 384 well plate contain 40 μL of 0.1% formic acid in water and analyzed by LC/MS/MS.
# LC/MS/MS analyses were performed using Thermo Fisher's LX4-TSQ Quantum Ultra system. This system consists of four Agilent binary high-performance liquid chromatography (HPLC) pumps and a TSQ Quantum Ultra triple quadrupole MS/MS instrument. For each sample, 5 μL were injected onto an Atlantis T3 column (2.1 mm×150 mm, […] particle size) from Waters. The mobile phase gradient pumped at 0.8 mL/min was used to elute the analytes from the column at 25° C. […] Mobile phase A consisted of 0.1% formic acid in water. Mobile phase B consisted of 0.1% of formic acid in acetonitrile. Data was acquired in positive mode using a HESI interface. The operational parameters for the TSQ Quantum Ultra instrument were a spray voltage of 4000 V, capillary temperature of 380° C., vaporizer temperature 400° C., shealth gas 60 arbitrary units, Aux gas 20 arbitrary units, tube lens 85 and collision gas 1.2 mTorr. […] The peak area was integrated by Xcalibur Quan software. The ratios between the kynurenine generated in the reaction and 2D6-Kynurenine spiked-in internal standard were used to generate percentage inhibition and IC50 values.
# IDO1 [2] = target: T1, IDO1; test: IDO1 Cellular Assay in HeLa Cells Stimulated with IFNγ; type: cell-based; settings: read-out: Hela IC50
IC50 (IDO1 [1]),IC50 (IDO1 [2]),IC50 (IDO1 [2]; about 48 hours),SMILES
239 nM,1.35 nM,,"O=C(OC1CC1)N1CCCc2nc(C3(C(=O)Nc4ccc(Cl)nc4)CC4(CC4)C3)ccc21 [Example 418, 2-(5-((6-chloropyridin-3-yl)carbamoyl)spiro[2.3]hexan-5-yl)-5-(cyclopropoxycarbonyl)-5,6,7,8-tetrahydro-1,5-naphthyridin-1-ium 2,2,2-trifluoroacetate]"
4 nM,,2.8 nM,"O=C(OC1CC1)N1CCCc2nc(C3(C(=O)Nc4ccc(F)cc4)COC3)ccc21 [Example 266, cyclopropyl 6-(3-((4-fluorophenyl)carbamoyl)oxetan-3-yl)-3,4-dihydro-1,5-naphthyridine-1(2H)-carboxylate]"
78 nM,24.6 nM,,"CC(NC(=O)c1ccc(F)cc1)c1ccc2c(n1)CCCN2C(=O)OCC(F)F (stereo not shown) [Example 309, 2,2-difluoroethyl 6-(1-(4-fluorobenzamido)ethyl)-3,4-dihydro-1,5-naphthyridine-1(2H)-carboxylate]"
2610 nM,,1.9 nM,"Cc1nc(C(=O)N2CCCc3cc([C@H](C)C(=O)Nc4ccc(F)cn4)ccc32)no1 [Example 65, (2S)-N-(5-fluoropyridin-2-yl)-2-[1-(5-methyl-1,2,4-oxadiazole-3-carbonyl)-1,2,3,4-tetrahydroquinolin-6-yl]propanamide]"
1000 nM,71 nM,,"Cc1nccc(N2CCCc3nc(C4(C(=O)Nc5ccc(F)cc5)CC(O)C4)ccc32)n1 (stereo not shown) [Example 426, 2-(1-((4-fluorophenyl)carbamoyl)-3-hydroxycyclobutyl)-5-(2-methylpyrimidin-4-yl)-5,6,7,8-tetrahydro-1,5-naphthyridin-1-ium 2,2,2-trifluoroacetate]"
65 nM,2.64 nM,,"Cc1nccc(N2CCCc3nc(C4(C(=O)Nc5ccc(F)cc5)CC4(F)F)ccc32)n1 (single isomer, unassigned) [Example 421, 2,2-difluoro-N-(4-fluorophenyl)-1-(5-(2-methylpyrimidin-4-yl)-5,6,7,8-tetrahydro-1,5-naphthyridin-2-yl)cyclopropanecarboxamide]"
29 nM,,2.7 nM,"CC(C(=O)Nc1ccc(F)cc1)c1ccc2c(n1)CCCN2C(=O)C1CCCO1 (stereo in doubt) [Example 162, N-(4-fluorophenyl)-2-{5-[(2R)-oxolane-2-carbonyl]-5,6,7,8-tetrahydro-1,5-naphthyridin-2-yl}propanamide]"
361 nM,,3.3 nM,"O=C(N1CCCc2cc(C3(C(=O)Nc4ccc(F)cc4)CCC3)ccc21)C1(F)CC1 [Example 98, 1-[1-(1-fluorocyclopropane-1-carbonyl)-1,2,3,4-tetrahydroquinolin-6-yl]-N-(4-fluorophenyl)cyclobutane-1-carboxamide]"
34 nM,,2.7 nM,"CC(C(=O)Nc1ccc(F)cc1)c1ccc2c(n1)CCCN2C(=O)C1CCOCC1 (stereo not shown) [Example 165, N-(4-fluorophenyl)-2-[5-(oxane-4-carbonyl)-5,6,7,8-tetrahydro-1,5-naphthyridin-2-yl]propanamide]"
63 nM,,1.9 nM,"Cc1nccc(N2CCCc3nc(C4(NC(=O)c5ccc(Cl)nc5)CC4)ccc32)n1 [Example 300, 6-chloro-N-(1-(5-(2-methylpyrimidin-4-yl)-5,6,7,8-tetrahydro-1,5-naphthyridin-2-yl)cyclopropyl)nicotinamide]"
115 nM,,3.5 nM,"CC1(C(=O)N2CCCc3cc(C4(C(=O)Nc5ccc(F)cc5)CCC4)ccc32)CC1 [Example 104, N-(4-fluorophenyl)-1-[1-(1-methylcyclopropane-1-carbonyl)-1,2,3,4-tetrahydroquinolin-6-yl]cyclobutane-1-carboxamide]"
35 nM,,3 nM,"COCCOC(=O)N1CCCc2nc(C(C)NC(=O)c3ccc(Cl)cc3)ccc21 (stereo not shown) [Example 212, 2-methoxyethyl 6-{1-[(4-chlorobenzene-1-carbonyl)amino]ethyl}-3,4-dihydro-1,5-naphthyridine-1(2H)-carboxylate]"
70 nM,0.79 nM,,"O=C(OC1CC1)N1CCCc2nc(C3(C(=O)Nc4ccc(F)cc4)CCC3)ccc21 [Example 410, cyclopropyl 6-(1-((4-fluorophenyl)carbamoyl)cyclobutyl)-3,4-dihydro-1,5-naphthyridine-1(2H)-carboxylate]"
12 nM,0.73 nM,,"O=C(OC1CC1)N1CCCc2nc(C3(C(=O)Nc4ccc(F)cc4)CC4(CC4)C3)ccc21 [Example 417, cyclopropyl 6-(5-((4-fluorophenyl)carbamoyl)spiro[2.3]hexan-5-yl)-3,4-dihydro-1,5-naphthyridine-1(2H)-carboxylate]"
214 nM,,1.4 nM,"Cn1ccc(C(=O)N2CCCc3cc(C4(C(=O)Nc5ccc(F)cn5)CCC4)ccc32)n1 [Example 120, N-(5-fluoropyridin-2-yl)-1-[1-(1-methyl-1H-pyrazole-3-carbonyl)-1,2,3,4-tetrahydroquinolin-6-yl]cyclobutane-1-carboxamide]"

# Continued, compound first:
SMILES,IC50 (IDO1 [1]),IC50 (IDO1 [2]),IC50 (IDO1 [2]; about 48 hours)
"Cc1nccc(N2CCCc3nc(C(C)(C)C(=O)Nc4ccc(F)cc4)ccc32)n1 [Example 389, N-(4-fluorophenyl)-2-methyl-2-(5-(2-methylpyrimidin-4-yl)-5,6,7,8-tetrahydro-1,5-naphthyridin-2-yl)propanamide]",44 nM,,2.92 nM
"CC(NC(=O)c1ccc(F)cc1)c1ccc2c(n1)CCCN2C(=O)c1cc(Cl)cc(Cl)c1 (stereo not shown) [Example 149, N-{1-[5-(3,5-dichlorobenzene-1-carbonyl)-5,6,7,8-tetrahydro-1,5-naphthyridin-2-yl]ethyl}-4-fluorobenzamide]",33 nM,,3.2 nM
"CC(NC(=O)c1ccc(Cl)cc1)c1ccc2c(n1)CCCN2c1cccc(C2CC2)n1 (stereo not shown) [Example 351, 4-chloro-N-(1-(5-(6-cyclopropylpyridin-2-yl)-5,6,7,8-tetrahydro-1,5-naphthyridin-2-yl)ethyl)benzamide]",18 nM,3.38 nM,
"Cc1nccc(N2CCCc3nc(C(C)(C)C(=O)Nc4ccc(Cl)cc4)ccc32)n1 [Example 390, N-(4-chlorophenyl)-2-methyl-2-(5-(2-methylpyrimidin-4-yl)-5,6,7,8-tetrahydro-1,5-naphthyridin-2-yl)propanamide]",73 nM,,2.42 nM
"C[C@H](NC(=O)c1ccc(Cl)cc1)c1ccc2c(n1)OCCN2C(=O)c1cccc(Cl)c1 (single isomer, unassigned) [Example 254, 4-chloro-N-(1-(1-(3-chlorobenzoyl)-2,3-dihydro-1H-pyrido[2,3-b][1,4]oxazin-6-yl)ethyl)benzamide]",263 nM,,3.7 nM
"CC(C(=O)Nc1ccc(Cl)cc1)c1ccc2c(c1)CC(F)CN2C(=O)c1cccc(Cl)c1 (single isomer, unassigned) [Example 257, 2-(1-(3-chlorobenzoyl)-3-fluoro-1,2,3,4-tetrahydroquinolin-6-yl)-N-(4-chlorophenyl)propanamide]",35 nM,,1.34 nM
"Cc1nccc(N2CC(F)Cc3cc(C4(NC(=O)c5ccc(Cl)cc5)CC4)ccc32)n1 (racemic) [Example 437, 4-chloro-N-(1-(3-fluoro-1-(2-methylpyrimidin-4-yl)-1,2,3,4-tetrahydroquinolin-6-yl)cyclopropyl)benzamide, 2,2,2-trifluoroacetate salt]",16 nM,1.82 nM,
"CC(C(=O)Nc1ccc(F)cc1)c1ccc2c(c1)CCCN2C(=O)c1cnn(C)c1 (stereo not shown) [Example 48, N-(4-fluorophenyl)-2-[1-(1-methyl-1H-pyrazole-4-carbonyl)-1,2,3,4-tetrahydroquinolin-6-yl]propanamide]",321 nM,,15.8 nM
"C[C@@H](C(=O)Nc1ccc(Cl)cc1)c1ccc2c(c1)CCCN2C(=O)c1cccc(Cl)c1 (single isomer, unassigned) [Example 57]",51 nM,,2.3 nM
"CC(NC(=O)c1ccc(Cl)cc1)c1ccc2c(n1)CCCN2c1nc(C(F)(F)F)nc2ccccc12 (stereo not shown) [Example 358, 2-(1-(4-chlorobenzamido)ethyl)-5-(2-(trifluoromethyl)quinazolin-4-yl)-5,6,7,8-tetrahydro-1,5-naphthyridin-1-ium 2,2,2-trifluoroacetate]",1000 nM,4.24 nM,
"CC(NC(=O)c1ccc(Cl)cc1)c1ccc2c(n1)CCCN2C(=O)c1cc(C(F)F)ccn1 (stereo not shown) [Example 289, 4-chloro-N-(1-(5-(4-(difluoromethyl)picolinoyl)-5,6,7,8-tetrahydro-1,5-naphthyridin-2-yl)ethyl)benzamide]",17 nM,,2.7 nM
